The subject of data set [1] is carrageenan-induced thermal hyperalgesia and paw edema in mice. The data set is described as follows: Carrageenan-induced paw edema and thermal hyperalgesia. It counts as in vivo, mouse. The settings on record: 20 mg/kg, i.p. Here is the method:
Paw edema was induced by injecting 1% λ-carrageenan (20 μl, in sterile saline) into the plantar surface of the left hind paw using a 30 gauge needle attached to a glass syringe (Hamilton Company). Paw diameters were measured before carrageenan injection and 4 or 24 hours after injection using digital electronic calipers (Fisher) and expressed to the nearest ± 0.01 mm. SBFI26, SBFI50, SBFI60, and SBFI62 were dissolved in DMSO:cremophor-EL:saline (4% DMSO:10% Cremophor-EL) and administered (20 mg/kg, i.p.) 60 min prior to injection of carrageenan. Receptor antagonists were injected 10 min before the inhibitors. Rimonabant and SR144528 (3 mg/kg, i.p.) were dissolved in ethanol:cremophor-EL:saline (1∶1∶18) while GW6471 (4 mg/kg, i.p.) was dissolved in DMSO:cremophor-EL:saline (2% DMSO:5% Cremophor-EL). Edema is reported as the change in paw diameter at 24 hr compared to the baseline. Thermal hyperalgesia was measured using the Hargreaves plantar apparatus (Ugo Basile) as previously reported.

Data set [2] relates to acetic acid-induced writhing in mice. Description: Acetic acid-induced writhing. It counts as in vivo, mouse. Here is the method: Mice were acclimated to the laboratory environment for at least two hours and were habituated to the testing chamber for 30 min prior to acetic acid challenge. SBFI26, SBFI50, SBFI60, and SBFI62 (20 mg/kg) were administered via the subcutaneous route 60 min before acetic acid. Rimonabant, SR144528, GW6471, and naloxone were given 10 min before the inhibitors via the subcutaneous route. The mice subsequently received an i.p. injection of acetic acid (0.6% in sterile saline, 10 μl/g) and were placed in observation chambers. Abdominal stretches (marked by extension of the body and hind limbs) were counted for 20 min starting at 5 min post-injection.
For orientation: Writhing tests count abdominal constrictions after an irritant is injected.

The nature of data set [3]: Pharmacokinetics: SBFI26 levels in plasma and brain. It counts as in vivo. The settings on record: mouse, 20 mg/kg, i.p.; for half-life: ip. Here is the method:
Mice were injected with SBFI26 (20 mg/kg, i.p.) and were subsequently rapidly euthanized by decapitation at the indicated time points. The brain was rapidly removed and submerged in liquid nitrogen while the blood was collected into a K2-EDTA collection tube (Fisher). Plasma was isolated by centrifugation of the blood and 50 μl of the plasma was combined with 150 μl acetonitrile and centrifuged to remove the resulting protein pellet. Subsequently, 50 μl of water was added to 50 μl of the supernatant and 10 μl was injected for analysis into a Thermo TSQ Quantum Access Triple Quadrupole mass spectrometer (ThermoFisher). LC separation was achieved on a Luna C18 (150×2 mm) column. Mobile phase A consisted of 100% H20 while mobile phase B was composed of 100% acetonitrile. The flow rate was 200 μl/min. A linear gradient was used and started at 50% B for 2 min, then ramped to 100% B in 8 min., with a 2 min hold at 100% B. The system was then equilibrated at 50% B for a cycle time of 20 min. The mass spectrometer was operated in the negative ion mode with the high voltage set at −3.5 kV. The sheath pressure was 20 and the capillary was set to 270 °C. Multiple reaction monitoring (MRM) was used with the transition m/z 421 to 277 at 29 eV as the quantitation channel, while m/z 421 to 205 at 17 eV was employed as a conformation channel. SBFI26 quantification was performed using an external calibration curve.

For data set [4], the system named is locomotor activity in mice. The data set is described as follows: Locomotor activity. It counts as in vivo, mouse. The conditions noted are these: 20 mg/kg, i.p., measured 90 min after administration. Here is the method: […] Locomotor activity was recorded for 5 min by a video camera suspended above the chamber and subsequently scored by an observer blinded to the treatment conditions. A grid crossing was scored when both hind legs of the animal crossed the border of each grid square.

The subject of data set [5] is rectal temperature in mice. The data set is described as follows: Rectal temperature. It counts as in vivo, mouse. The conditions noted are these: 20 mg/kg, i.p., baseline vs 90 min. Here is the method:
Rectal temperature was measured at baseline and 90 min following vehicle or drug administration, by inserting a thermocouple probe 1.5 cm into the rectum and the temperature was read using a thermocouple meter (Kent Scientific).

For the next data set, the system named is CB1. Details: method as in PMID 23236415. The settings on record: previously demonstrated ref 31; cited from earlier work.

Like-named read-outs stand apart in the source and are kept apart here.

What is called half-life is how long it takes for the measured level to halve. Turning to `O=C(O)C1C(c2ccccc2)C(C(=O)Oc2cccc3ccccc23)C1c1ccccc1` (stereo not drawn) [SBFI26, alpha-2,4-diphenylcyclobutane-1,3-dicarboxylic acid mono-1-naphthyl ester], in data set [1], the “Effect upon carrageenan-induced paw edema” value is reported as “reduced” and the “Effect upon carrageenan-induced thermal hyperalgesia” value is on record as “reduced”. For the same molecule, in data set [2] (20 mg/kg, subcutaneous, 60 min before acetic acid), the “Effect upon acetic acid-induced writhing” value is listed as “significantly reduced”. The “Antinociceptive effects in the acetic acid test after pretreatment with PPARα antagonist GW6471” value in data set [2] (GW6471 4 mg/kg) was “blocked”. For the same molecule, the “Antinociceptive effects in the acetic acid test after pretreatment with CB2 antagonist SR144528” value in data set [2] (SR144528 3 mg/kg) is on record as “failed to reverse”. Also, the “Dose of near maximal efficacy in acetic acid writhing” value in data set [2] (dose response analysis) stood at 20 mg/kg. In data set [2] (naloxone 2 mg/kg), the “Antinociceptive effects in the acetic acid test after pretreatment with opioid antagonist naloxone” value is “failed to reverse”. Moreover, the “Antinociceptive effects in the acetic acid test after pretreatment with CB1 antagonist rimonabant” value in data set [2] (rimonabant 3 mg/kg 10 min before inhibitor) was “completely blocked”. The half-life in data set [3] (brain, read-out: Brain half-life (converted)) was roughly 3 h. Also, the “Brain levels relative to plasma levels” value in data set [3] was “lower”. Moreover, in data set [3] (brain), the “Time of peak brain level” value is “within one hour”. Moreover, the “Time of peak plasma level” value in data set [3] (plasma) is listed as “within one hour”. Further, in data set [3] (plasma and brain), the “Time by which levels return to baseline” value was no more than 24 h. Further, in data set [3] (plasma, read-out: Plasma half-life (converted)), the half-life is roughly 3 h. The Locomotor activity entry in data set [4] is given as “does not alter”. Also, the Rectal temperature result in data set [5] is “does not reduce”. For the same molecule, the “Activation of CB1” value with CB1 is reported as “does not activate”.
